Test results taken from ChEMBL document CHEMBL5500373, “Lead optimization based design, synthesis, and pharmacological evaluation of quinazoline derivatives as multi-targeting agents for Alzheimer's disease treatment” (Eur J Med Chem, 2024).
pIC50: −log10 of the molar value. The source made the active and inactive calls. The rule behind the calls is not given here.

Columns and labels:
Acetylcholinesterase [1] = molecular target: T1, Acetylcholinesterase (Homo sapiens, UniProt P22303); assay: Inhibition of human erythrocyte AChE using acetylthiocholine iodide as substrate preincubated for 30 mins followed by substrate addition and measured after 30 mins by DTNB based Ellman's method
Cholinesterase = Cholinesterase (Homo sapiens, UniProt P06276); assay: Inhibition of human serum BChE using butyrylthiocholine iodide as substrate preincubated for 30 mins followed by substrate addition and measured after 30 mins by DTNB based Ellman's method
Acetylcholinesterase [2] = molecular target: T1, Acetylcholinesterase; assay: Inhibition of human AChE using acetylthiocholine iodide as substrate assessed as reversal of enzyme activity by measuring remaining activity at 10 to 100 times IC50 incubated for 30 mins followed by dilution to 0.1 to 1 times IC50 with substrate
Acetylcholinesterase [3] = molecular target: T1, Acetylcholinesterase; assay: Inhibition of human AChE using acetylthiocholine iodide as substrate assessed as reduction in enzyme activity at 10 to 100 times IC50 incubated for 30 mins
[4] = molecular target: Amyloid-beta precursor protein (Homo sapiens) (UniProt P05067); assay: Inhibition of self induced amyloid beta (1 to 42 residues) (unknown origin) aggregation assessed as reduction in NFI measured after 48 hrs by thioflavin T based fluorescence analysis; conditions: dose 5-20 µM
[5] = molecular target: Amyloid-beta precursor protein (Homo sapiens) (UniProt P05067); assay: Inhibition of human AChE induced amyloid beta (1 to 42 residues) (unknown origin) aggregation assessed as reduction in NFI measured after 48 hrs by thioflavin T based fluorescence analysis; conditions: dose 5-20 µM
[6] = molecular target: Amyloid-beta precursor protein (Homo sapiens) (UniProt P05067); assay: Inhibition of amyloid beta (1 to 42 residues) (unknown origin) aggregation assessed as reduction in massive oligomers measured after 3 days by AFM analysis; conditions: time 3.0 day
[7] = molecular target: Amyloid-beta precursor protein (Homo sapiens) (UniProt P05067); assay: Inhibition of amyloid beta (1 to 42 residues) (unknown origin) aggregation assessed as reduction in fibrils measured after 3 days by AFM analysis; conditions: time 3.0 day
[8] = molecular target: Amyloid-beta precursor protein (Homo sapiens) (UniProt P05067); assay: Inhibition of amyloid beta (1 to 42 residues) (unknown origin) aggregation assessed as disaggregation by measuring reduction in fluorescence intensity measured after 3 days by confocal microscopic analysis; conditions: time 3.0 day
[9] = Neurotoxicity against retinoic acid/BDNF differentiated human SH-SY5Y cells assessed as reduction in cell viability at 80 uM incubated for 24 hrs by MTT assay relative to control; type: toxicity, cell-based
[10] = Acute toxicity in female Wistar rat assessed as signs of toxicity at 100 to 500 mg/kg, po measured after 14 days; type: organism-based; conditions: in vivo, 336 h, dose 100-500 mg/kg, time 14 day
[11] = Acute toxicity in female Wistar rat assessed as weight loss at 100 to 500 mg/kg, po measured upto 5 days; type: organism-based; conditions: in vivo, 120 h, dose 100-500 mg/kg, time < 5 day
[12] = Acute toxicity in female Wistar rat assessed as effect on renal functional parameters at 100 to 500 mg/kg, po measured after 14 days; type: organism-based; conditions: in vivo, 336 h, dose 100-500 mg/kg, time 14 day
[13] = Acute toxicity in female Wistar rat assessed as effect on hepatic functional parameters at 100 to 500 mg/kg, po measured after 14 days; type: organism-based; conditions: in vivo, 336 h, dose 100-500 mg/kg, time 14 day
[14] = Acute toxicity in female Wistar rat assessed as histopathological changes in kidneys at 100 to 500 mg/kg, po measured after 14 days; type: organism-based; conditions: in vivo, 336 h, dose 100-500 mg/kg, time 14 day
[15] = Acute toxicity in female Wistar rat assessed as histopathological changes in liver at 100 to 500 mg/kg, po measured after 14 days; type: organism-based; conditions: in vivo, 336 h, dose 100-500 mg/kg, time 14 day
[16] = Acute toxicity in female Wistar rat assessed as histopathological changes in brain at 100 to 500 mg/kg, po measured after 14 days; type: organism-based; conditions: in vivo, 336 h, dose 100-500 mg/kg, time 14 day
Rattus norvegicus [17] = assay: (§1) Reversal of amyloid beta (1 to 42 residues) induced cognitive impairment in female Wistar rat assessed as increase in total platform crossing at 20 mg/kg, po pretreated with amyloid beta for 7 days followed by compound administration and measured after 5 days by Morris water maze test; type: functional, organism-based; conditions: time 5.0 day
Rattus norvegicus [18] = assay: as §1, with “reduction” for “increase”, “amyloid beta level in brain hippocampus” for “total platform crossing”, “immunohistochemistry analysis” for “Morris water maze test”; type: functional, organism-based; conditions: time 5.0 day
Rattus norvegicus [19] = assay: as §1, with “reduction” for “increase”, “BACE-1 level in brain hippocampus” for “total platform crossing”, “immunohistochemistry analysis” for “Morris water maze test”; type: functional, organism-based; conditions: time 5.0 day
Rattus norvegicus [20] = assay: as §1, with “neuronal density in brain” for “total platform crossing”, “Nissls staining based light microscopic analysis” for “Morris water maze test”; type: functional, organism-based; conditions: time 5.0 day
Rattus norvegicus [21] = assay: as §1, with “neuronal arrangements in brain” for “total platform crossing”, “Nissls staining based light microscopic analysis” for “Morris water maze test”; type: functional, organism-based; conditions: time 5.0 day
[22] = Toxicity in Drosophila melanogaster Oregon R-positive assessed as reduction in eclosed flies at embryonic stage at 200 uM measured until 15 days relative to control; set-up: scale not given: the % may be the effect or the level left; conditions: 360 h, time 15 day
Drosophila melanogaster [23] = assay: Reversal of ey-GAL4 driven UAS-amyloid beta induced cellular toxicity in Drosophila melanogaster Oregon R-positive model assessed as increase in cell viability in gut at 1 uM by MTT assay relative to control; type: functional
Drosophila melanogaster [24] = assay: Reversal of ey-GAL4 driven UAS-amyloid beta induced cellular toxicity in Drosophila melanogaster Oregon R-positive model assessed as increase in cell viability in gut at 10 uM by MTT assay relative to control; type: functional
Drosophila melanogaster [25] = assay: Reversal of ey-GAL4 driven UAS-amyloid beta induced cellular toxicity in Drosophila melanogaster Oregon R-positive model assessed as increase in cell viability in gut at 50 uM by MTT assay relative to control; type: functional
Drosophila melanogaster [26] = assay: Reversal of ey-GAL4 driven UAS-amyloid beta induced cellular toxicity in Drosophila melanogaster Oregon R-positive model assessed as increase in rescued eye phenotype at 15 uM by trinocular stereo-zoom microscope relative to control; type: functional
Drosophila melanogaster [27] = assay: Reversal of ey-GAL4 driven UAS-amyloid beta induced cellular toxicity in Drosophila melanogaster Oregon R-positive model assessed as reduction in severe ommatidial death eye phenotype at 10 uM by trinocular stereo-zoom microscope relative to control; type: functional; set-up: scale not given: the % may be the effect or the level left
Drosophila melanogaster [28] = assay: Reversal of ey-GAL4 driven UAS-amyloid beta induced cellular toxicity in Drosophila melanogaster Oregon R-positive model assessed as reduction in severe ommatidial death eye phenotype at 15 uM by trinocular stereo-zoom microscope relative to control; type: functional; set-up: scale not given: the % may be the effect or the level left
Drosophila melanogaster [29] = assay: Reversal of ey-GAL4 driven UAS-amyloid beta induced cellular toxicity in Drosophila melanogaster Oregon R-positive model assessed as reduction in mild ommatidial death eye phenotype at 10 uM by trinocular stereo-zoom microscope relative to control; type: functional; set-up: scale not given: the % may be the effect or the level left
[30] = Cmax in male Wistar rat at 20 mg/kg, po measured upto 32 hrs by high-performance liquid chromatography; type: ADME, organism-based; conditions: in vivo
[31] = Tmax in male Wistar rat at 20 mg/kg, po measured upto 32 hrs by high-performance liquid chromatography; type: ADME, organism-based; conditions: in vivo
[32] = AUC (0 to t) in male Wistar rat at 20 mg/kg, po measured upto 32 hrs by high-performance liquid chromatography; type: ADME, organism-based; conditions: in vivo
[33] = Elimination half life in male Wistar rat at 20 mg/kg, po measured upto 32 hrs by high-performance liquid chromatography; type: ADME, organism-based; conditions: in vivo, read-out: beta t1/2 (converted)
[34] = MRT in male Wistar rat at 20 mg/kg, po measured upto 32 hrs by high-performance liquid chromatography; type: ADME, organism-based; conditions: in vivo
in vitro = conditions: PAMPA

Chain of Amyloid-beta precursor protein (Homo sapiens) (P05067 whole entry, the tested form may be a part): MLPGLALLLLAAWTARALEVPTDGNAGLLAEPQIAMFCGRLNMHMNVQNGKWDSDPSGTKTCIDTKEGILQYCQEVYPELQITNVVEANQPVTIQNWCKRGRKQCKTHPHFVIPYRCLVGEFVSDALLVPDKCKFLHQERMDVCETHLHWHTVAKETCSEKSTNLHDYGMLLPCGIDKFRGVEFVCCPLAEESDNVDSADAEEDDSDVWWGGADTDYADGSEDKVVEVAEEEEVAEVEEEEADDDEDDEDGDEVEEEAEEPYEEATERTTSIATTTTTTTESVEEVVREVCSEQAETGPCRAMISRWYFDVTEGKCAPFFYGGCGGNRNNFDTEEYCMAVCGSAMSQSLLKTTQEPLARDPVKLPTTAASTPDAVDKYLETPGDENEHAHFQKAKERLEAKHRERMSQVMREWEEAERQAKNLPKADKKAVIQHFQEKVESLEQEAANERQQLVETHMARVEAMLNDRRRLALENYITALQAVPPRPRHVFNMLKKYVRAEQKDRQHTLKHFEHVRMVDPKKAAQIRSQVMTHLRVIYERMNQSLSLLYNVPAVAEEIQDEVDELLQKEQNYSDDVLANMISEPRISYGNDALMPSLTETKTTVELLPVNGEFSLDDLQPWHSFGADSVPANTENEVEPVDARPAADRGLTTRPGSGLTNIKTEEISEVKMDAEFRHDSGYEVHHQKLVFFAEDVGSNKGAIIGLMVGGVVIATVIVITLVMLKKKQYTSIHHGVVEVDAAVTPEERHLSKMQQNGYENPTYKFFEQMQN
T1 sequence (P22303 whole entry): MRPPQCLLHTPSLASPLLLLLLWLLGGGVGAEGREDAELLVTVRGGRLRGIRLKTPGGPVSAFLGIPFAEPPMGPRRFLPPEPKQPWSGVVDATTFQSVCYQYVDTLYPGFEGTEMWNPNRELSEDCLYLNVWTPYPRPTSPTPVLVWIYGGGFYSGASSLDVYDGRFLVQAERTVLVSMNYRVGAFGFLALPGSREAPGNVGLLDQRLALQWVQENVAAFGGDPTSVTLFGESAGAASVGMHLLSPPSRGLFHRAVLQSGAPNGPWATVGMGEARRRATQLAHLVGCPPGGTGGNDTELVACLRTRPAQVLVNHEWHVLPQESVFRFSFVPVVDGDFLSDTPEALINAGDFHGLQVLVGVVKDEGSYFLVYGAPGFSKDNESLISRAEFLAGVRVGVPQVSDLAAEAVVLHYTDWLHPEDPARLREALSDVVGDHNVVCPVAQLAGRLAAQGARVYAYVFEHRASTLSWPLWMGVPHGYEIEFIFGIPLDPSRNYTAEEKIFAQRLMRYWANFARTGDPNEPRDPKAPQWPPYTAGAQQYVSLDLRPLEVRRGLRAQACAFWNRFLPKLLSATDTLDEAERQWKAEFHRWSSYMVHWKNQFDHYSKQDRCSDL
Chain of Cholinesterase (P06276 whole entry): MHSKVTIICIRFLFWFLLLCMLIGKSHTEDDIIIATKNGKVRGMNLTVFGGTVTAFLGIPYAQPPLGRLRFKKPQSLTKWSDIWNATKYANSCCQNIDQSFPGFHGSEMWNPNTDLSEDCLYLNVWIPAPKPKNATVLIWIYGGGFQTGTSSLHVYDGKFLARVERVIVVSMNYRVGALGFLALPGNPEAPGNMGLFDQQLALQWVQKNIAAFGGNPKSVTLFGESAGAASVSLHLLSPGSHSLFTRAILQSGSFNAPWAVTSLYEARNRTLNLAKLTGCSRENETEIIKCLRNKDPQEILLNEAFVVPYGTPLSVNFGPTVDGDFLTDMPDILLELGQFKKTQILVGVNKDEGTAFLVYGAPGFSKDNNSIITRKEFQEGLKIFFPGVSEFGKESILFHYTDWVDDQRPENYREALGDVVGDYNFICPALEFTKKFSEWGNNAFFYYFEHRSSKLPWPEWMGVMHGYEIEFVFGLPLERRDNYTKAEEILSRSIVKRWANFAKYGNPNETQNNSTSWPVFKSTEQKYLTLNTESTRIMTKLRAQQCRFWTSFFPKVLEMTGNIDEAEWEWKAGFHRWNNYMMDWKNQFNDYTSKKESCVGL

## COc1cc2ncnc(N3CCN(Cc4ccccc4)CC3)c2cc1OC
Acetylcholinesterase [1]
  pIC50: 6.55
Cholinesterase
  pIC50: < 5.00
Acetylcholinesterase [2]
  Activity: > 60%
Acetylcholinesterase [3]
  inhibition: Active
[4]
  inhibition: Dose-Dependent Effect
[5]
  inhibition: Dose-Dependent Effect
[6]
  inhibition: Active
[7]
  inhibition: Active
[8]
  Activity: Active
[9]
  Activity: 26%
[10]
  Activity: Non-Toxic
[11]
  Activity: Toxic
[12]
  Activity: Non-Toxic
[13]
  Activity: Non-Toxic
[14]
  Activity: Non-Toxic
[15]
  Activity: Non-Toxic
[16]
  Activity: Non-Toxic
Rattus norvegicus [17]
  Activity: Active
Rattus norvegicus [18]
  Activity: Active
Rattus norvegicus [19]
  Activity: Active
Rattus norvegicus [20]
  Activity: Active
Rattus norvegicus [21]
  Activity: Active
[22]
  Activity: 100%
Drosophila melanogaster [23]
  Activity: 69%
Drosophila melanogaster [24]
  Activity: 62%
Drosophila melanogaster [25]
  Activity: 75%
Drosophila melanogaster [26]
  Activity: 57%
Drosophila melanogaster [27]
  Activity: 23.3%
Drosophila melanogaster [28]
  Activity: 20%
Drosophila melanogaster [29]
  Activity: 37%
[30]
  Cmax: 1340 ng/mL
[31]
  Tmax: 3 h
[32]
  AUC(0-t) at 32 h: 6990 ng·h/mL
[33]
  half-life: 3.11 h
[34]
  MRT: 6.07 h
In vitro
  Papp at 18 h, 25 ug/ml: 6.03 ×10⁻⁶ cm/s
